What was measured:
[1] = target: D(1A) dopamine receptor (Homo sapiens, UniProt P21728); assay: DRUGMATRIX: Dopamine D1 radioligand binding (ligand: [3H] SCH-23390); type: cell membranes, CHO, Membrane; conditions: cho; Not Active = under 50% inhibition at 10 µM
[2] = target: T1, Glucocorticoid receptor (Homo sapiens, UniProt P04150); conditions: hela s3; further: in other assays of this panel Not Active means under 50% inhibition at 10 µM
T1 sequence (P04150 whole entry): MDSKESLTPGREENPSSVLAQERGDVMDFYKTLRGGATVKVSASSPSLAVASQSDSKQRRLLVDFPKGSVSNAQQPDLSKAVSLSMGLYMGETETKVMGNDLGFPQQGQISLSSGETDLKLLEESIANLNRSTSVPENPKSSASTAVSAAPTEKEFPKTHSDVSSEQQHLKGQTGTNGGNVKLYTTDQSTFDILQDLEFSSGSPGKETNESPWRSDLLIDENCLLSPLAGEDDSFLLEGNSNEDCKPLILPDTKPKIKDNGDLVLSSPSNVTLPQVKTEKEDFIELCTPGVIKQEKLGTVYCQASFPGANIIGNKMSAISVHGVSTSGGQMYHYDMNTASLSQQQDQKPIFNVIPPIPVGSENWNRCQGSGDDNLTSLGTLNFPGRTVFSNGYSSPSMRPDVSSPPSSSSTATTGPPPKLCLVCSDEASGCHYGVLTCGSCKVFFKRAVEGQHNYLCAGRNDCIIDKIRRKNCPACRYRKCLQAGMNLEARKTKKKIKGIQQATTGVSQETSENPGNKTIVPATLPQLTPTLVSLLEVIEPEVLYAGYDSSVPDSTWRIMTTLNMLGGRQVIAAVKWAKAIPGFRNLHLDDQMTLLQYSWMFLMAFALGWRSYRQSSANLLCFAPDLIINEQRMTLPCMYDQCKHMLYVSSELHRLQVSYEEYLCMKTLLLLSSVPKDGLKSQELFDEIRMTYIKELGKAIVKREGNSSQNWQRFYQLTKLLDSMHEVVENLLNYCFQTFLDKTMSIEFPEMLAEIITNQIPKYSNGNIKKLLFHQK

[3] = DRUGMATRIX: Imidazoline I2, Central radioligand binding (ligand: [3H] Idazoxan); type: cell membranes, Rattus norvegicus, Wistar, Cerebral cortex, Membrane; conditions: Not Active = under 50% inhibition at 10 µM
[4] = target: T2, 5-hydroxytryptamine receptor 1A (Rattus norvegicus, UniProt P19327); type: cell membranes, CHO-K1, Membrane; conditions: cho-k1; further: in other assays of this panel Not Active means under 50% inhibition at 10 µM
T2 sequence (P19327 whole entry): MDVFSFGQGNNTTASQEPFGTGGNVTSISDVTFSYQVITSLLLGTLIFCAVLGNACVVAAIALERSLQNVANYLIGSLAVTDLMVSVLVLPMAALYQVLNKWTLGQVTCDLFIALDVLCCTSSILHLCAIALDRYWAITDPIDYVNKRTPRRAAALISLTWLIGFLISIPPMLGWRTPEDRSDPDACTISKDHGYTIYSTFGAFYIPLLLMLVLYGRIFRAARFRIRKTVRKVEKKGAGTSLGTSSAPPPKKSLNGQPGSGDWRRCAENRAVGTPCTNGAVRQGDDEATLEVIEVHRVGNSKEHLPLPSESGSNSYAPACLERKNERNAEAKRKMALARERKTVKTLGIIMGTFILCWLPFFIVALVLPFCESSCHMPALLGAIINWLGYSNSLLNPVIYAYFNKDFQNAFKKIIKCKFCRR

[5] = target: T3, Neutrophil elastase (Homo sapiens, UniProt P08246); type: tissue-based;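 further: inhibition of neutrophil elastase enzyme activity, measured with a p-nitroanilide-linked peptide substrate; in other assays of this panel Not Active means under 50% inhibition at 10 µM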
T3 sequence (P08246 whole entry): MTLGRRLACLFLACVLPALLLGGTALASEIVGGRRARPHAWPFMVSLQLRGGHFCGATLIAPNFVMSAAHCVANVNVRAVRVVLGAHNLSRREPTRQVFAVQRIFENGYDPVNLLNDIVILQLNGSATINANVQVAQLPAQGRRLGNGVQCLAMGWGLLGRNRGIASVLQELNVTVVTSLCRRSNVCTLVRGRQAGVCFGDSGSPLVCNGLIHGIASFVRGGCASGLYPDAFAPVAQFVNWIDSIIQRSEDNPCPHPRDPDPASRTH

[6] = target: T4, Type-2 angiotensin II receptor (Homo sapiens, UniProt P50052); type: cell-based; conditions: cho-k1; further: in other assays of this panel Not Active means under 50% inhibition at 10 µM
T4 sequence (P50052 whole entry): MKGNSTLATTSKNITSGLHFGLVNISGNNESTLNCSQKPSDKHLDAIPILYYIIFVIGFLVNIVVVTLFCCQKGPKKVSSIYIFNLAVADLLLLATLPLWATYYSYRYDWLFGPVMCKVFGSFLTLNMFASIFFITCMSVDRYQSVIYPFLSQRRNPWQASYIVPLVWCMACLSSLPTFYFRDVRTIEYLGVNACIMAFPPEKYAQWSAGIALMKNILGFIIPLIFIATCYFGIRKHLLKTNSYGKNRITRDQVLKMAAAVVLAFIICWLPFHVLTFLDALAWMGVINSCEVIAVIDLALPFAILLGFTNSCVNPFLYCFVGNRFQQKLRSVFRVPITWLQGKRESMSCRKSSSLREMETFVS

[7] = target: T5, Alpha-1B adrenergic receptor (Rattus norvegicus, UniProt P15823); assay: DRUGMATRIX: Alpha-1B adrenergic receptor radioligand binding (ligand: prazosin); type: cell membranes, Wistar, Liver, Membrane; conditions: Not Active = under 50% inhibition at 10 µM
T5 sequence (P15823 whole entry): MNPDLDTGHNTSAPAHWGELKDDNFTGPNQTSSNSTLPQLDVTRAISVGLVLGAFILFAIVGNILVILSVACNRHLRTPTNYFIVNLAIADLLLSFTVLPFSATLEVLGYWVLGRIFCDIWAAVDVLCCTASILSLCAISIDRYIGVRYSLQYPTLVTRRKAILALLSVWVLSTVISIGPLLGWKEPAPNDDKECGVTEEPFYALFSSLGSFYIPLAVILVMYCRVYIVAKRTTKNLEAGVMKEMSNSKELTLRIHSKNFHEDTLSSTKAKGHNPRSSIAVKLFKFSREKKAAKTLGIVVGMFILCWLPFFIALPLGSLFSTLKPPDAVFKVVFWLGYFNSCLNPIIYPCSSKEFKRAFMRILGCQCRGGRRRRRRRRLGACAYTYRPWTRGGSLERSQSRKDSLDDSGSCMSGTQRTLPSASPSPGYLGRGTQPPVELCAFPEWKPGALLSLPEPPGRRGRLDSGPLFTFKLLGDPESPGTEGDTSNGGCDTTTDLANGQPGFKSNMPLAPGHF

[8] = target: T6, C-X-C chemokine receptor type 2 (Homo sapiens, UniProt P25025); type: cell membranes, Membrane; conditions: cho-k1; further: in other assays of this panel Not Active means under 50% inhibition at 10 µM
T6 sequence (P25025 whole entry): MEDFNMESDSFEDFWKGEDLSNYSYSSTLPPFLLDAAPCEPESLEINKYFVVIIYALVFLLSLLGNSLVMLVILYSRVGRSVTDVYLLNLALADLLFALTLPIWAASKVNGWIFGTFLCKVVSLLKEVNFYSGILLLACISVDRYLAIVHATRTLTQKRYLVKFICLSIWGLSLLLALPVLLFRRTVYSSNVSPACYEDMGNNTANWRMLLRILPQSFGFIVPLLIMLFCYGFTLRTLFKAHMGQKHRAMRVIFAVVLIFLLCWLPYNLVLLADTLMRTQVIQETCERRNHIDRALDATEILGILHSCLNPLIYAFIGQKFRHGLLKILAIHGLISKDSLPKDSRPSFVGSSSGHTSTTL

Chain of D(1A) dopamine receptor (P21728 whole entry): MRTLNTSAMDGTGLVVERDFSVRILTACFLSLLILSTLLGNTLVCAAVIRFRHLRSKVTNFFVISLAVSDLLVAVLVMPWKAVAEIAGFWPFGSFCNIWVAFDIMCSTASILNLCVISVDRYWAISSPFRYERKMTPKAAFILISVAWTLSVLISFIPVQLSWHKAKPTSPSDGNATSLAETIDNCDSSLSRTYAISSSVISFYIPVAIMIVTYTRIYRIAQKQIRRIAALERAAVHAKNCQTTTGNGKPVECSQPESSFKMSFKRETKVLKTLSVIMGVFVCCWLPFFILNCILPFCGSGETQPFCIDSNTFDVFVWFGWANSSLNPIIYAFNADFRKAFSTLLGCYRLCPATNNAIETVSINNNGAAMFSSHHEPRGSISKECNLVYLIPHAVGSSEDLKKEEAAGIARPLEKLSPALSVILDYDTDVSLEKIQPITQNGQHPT

O=C1OCCN1/N=C/c1ccc([N+](=O)[O-])o1 [FURAZOLIDONE]
Not Active: IC50 [1] | IC50 [2] | IC50 [3] | Ki [3] | IC50 [4] | IC50 [5] | IC50 [6] | IC50 [7] | IC50 [8]

NCC1(CC(=O)O)CCCCC1 [GABAPENTIN]
Not Active: IC50 [1] | IC50 [2] | IC50 [3] | Ki [3] | IC50 [4] | IC50 [5] | IC50 [6] | IC50 [7] | IC50 [8]

CC[N+](CC)(CC)CCOc1cccc(OCC[N+](CC)(CC)CC)c1OCC[N+](CC)(CC)CC.[I-].[I-].[I-] [GALLAMINE TRIETHIODIDE]
Not Active: IC50 [1] | IC50 [2] | IC50 [3] | Ki [3] | IC50 [4] | IC50 [5] | IC50 [6] | IC50 [7] | IC50 [8]

Nc1nc2c(ncn2COC(CO)CO)c(=O)[nH]1 [GANCICLOVIR]
Not Active: IC50 [1] | IC50 [2] | IC50 [3] | Ki [3] | IC50 [4] | IC50 [5] | IC50 [6] | IC50 [7] | IC50 [8]

COc1c(N2CCNC(C)C2)c(F)cc2c(=O)c(C(=O)O)cn(C3CC3)c12 (centres undefined) [GATIFLOXACIN]
Not Active: IC50 [1] | IC50 [2] | IC50 [3] | Ki [3] | IC50 [4] | IC50 [5] | IC50 [6] | IC50 [7] | IC50 [8]

NCC(=O)O [GLYCINE]
Not Active: IC50 [1] | IC50 [2] | IC50 [3] | Ki [3] | IC50 [4] | IC50 [5] | IC50 [6] | IC50 [7] | IC50 [8]

COC1=CC(=O)C[C@@H](C)[C@]12Oc1c(Cl)c(OC)cc(OC)c1C2=O [GRISEOFULVIN]
Not Active: IC50 [1] | IC50 [2] | IC50 [3] | Ki [3] | IC50 [4] | IC50 [5] | IC50 [6] | IC50 [7] | IC50 [8]

C/C=C1\[C@H]2C=C(C)C[C@]1(N)c1ccc(=O)[nH]c1C2 [HUPERZINE A]
Not Active: IC50 [1] | IC50 [2] | IC50 [3] | Ki [3] | IC50 [4] | IC50 [5] | IC50 [6] | IC50 [7] | IC50 [8]

NS(=O)(=O)c1cc2c(cc1Cl)NCNS2(=O)=O [HYDROCHLOROTHIAZIDE]
Not Active: IC50 [1] | IC50 [2] | IC50 [3] | Ki [3] | IC50 [4] | IC50 [5] | IC50 [6] | IC50 [7] | IC50 [8]

O=P1(NCCCl)OCCCN1CCCl (centres undefined) [IFOSFAMIDE]
Not Active: IC50 [1] | IC50 [2] | IC50 [3] | Ki [3] | IC50 [4] | IC50 [5] | IC50 [6] | IC50 [7] | IC50 [8]

O=C1CN=C(c2ccccc2)c2cc([N+](=O)[O-])ccc2N1 [NITRAZEPAM]
Not Active: IC50 [1] | IC50 [2] | IC50 [3] | Ki [3] | IC50 [4] | IC50 [5] | IC50 [6] | IC50 [7] | IC50 [8]

Source: ChEMBL document CHEMBL1909046, “DrugMatrix in vitro pharmacology data”
